Target: T1, PMN elastase (Homo sapiens, UniProt P08246)
T1 construct: The elastase was isolated from human leukocytes; from tissue; host or cells: human leukocytes
T1 sequence (P08246 30-247 limits assumed): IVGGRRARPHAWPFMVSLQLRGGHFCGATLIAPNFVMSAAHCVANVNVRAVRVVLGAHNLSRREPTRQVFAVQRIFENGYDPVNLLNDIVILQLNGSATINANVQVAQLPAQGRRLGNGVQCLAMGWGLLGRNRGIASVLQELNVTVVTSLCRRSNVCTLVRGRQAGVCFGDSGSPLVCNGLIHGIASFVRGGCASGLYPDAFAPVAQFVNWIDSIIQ
Assay: Assay for Elastase from Polymorphonuclear Granulocytes (PMN Elastase)
Assay type: biochemical
Parameters: key to inhibiting effect in PMN elastase assay (inactive): Substances which showed no inhibiting effect at the maximum concentration of 100 μg/ml were defined as inactive
Conditions: for IC50: 1 hour preincubation with enzyme, substrate MeO-Suc-Ala-Ala-Pro-Val-pNA, 15 minutes, 405 nm, maximum 100 μg/ml, read-out: IC50 (inhibiting effect on PMN elastase) (converted); for inhibiting effect on PMN elastase, comparison in words: compared with manumycin / compounds (1) to (3)
Procedure: The elastase was isolated from human leukocytes by the method described by Engelbrecht et al. (Hoppe-Seyler's Physiol. Chem. 363, pp. 305-315, 1982). The substrate used was the MeO-Suc-[…] (Calbiochem) described by Nakajima et al. (J. Biol. Chem. 254, pp. 4027-4032, 1979). The Liberation of the p-nitroaniline from the substrate in 15 minutes was measured as the increase in absorption at 405 nm in a spectrophotometer. This absorption was defined as 100% activity of the enzyme PMN elastase. The inhibitors of PMN elastase were preincubated in increasing concentrations up to a maximum of 100 μg/ml with the enzyme for 1 hour, and the enzyme reaction was started with the substrate. The IC50 was defined as that inhibitor concentration which inhibits 50% of the enzyme activity.

Compound | inhibition of leukocyte elastase, in words | IC50 [µM] | inhibiting effect in PMN elastase assay (inactive) (maximum concentration 100 μg/ml, "--" in Table 2) | inhibiting effect on PMN elastase, comparison in words
CCCC[C@@H](C)/C=C(C)/C=C(\C)C(=O)Nc1cc(/C=C/C=C/C=C/C(=O)NC2=C(O)CCC2=O)c(O)cc1O [Compound (1)] | inhibit leukocyte elastase | 4.68 |  | 
CCCC[C@@H](C)/C=C(C)/C=C(\C)C(=O)Nc1cc(/C=C/C=C/C=C/C(=O)NC2=C(O)CCC2=O)ccc1O [Compound (2)] | inhibit leukocyte elastase | 5.98 |  | 
CCCC[C@@H](C)/C=C(C)/C=C(\C)C(=O)Nc1cccc(/C=C/C=C/C=C/C(=O)NC2=C(O)CCC2=O)c1 [Compound (3)] | inhibit leukocyte elastase | 7.16 |  | 
Nc1cccc(/C=C/C=C/C=C/C(=O)NC2=C(O)CCC2=O)c1 [Compound (4)] |  |  | inactive | 
Nc1ccc(/C=C/C=C/C=C/C(=O)NC2=C(O)CCC2=O)cc1 [Compound (5)] | inhibit leukocyte elastase | 135 |  | distinctly weaker inhibiting effect
CCCCC(C)C=C(C)C=C(C)C(=O)NC1=CC(O)(C=CC=CC=CC(=O)NC2=C(O)CCC2=O)C2OC2C1=O (stereo not drawn) [Manumycin, manumycin] |  | 7.99 |  | comparable to that of the compounds (1) to (3)
